Laboratory results taken from patent US10441663B2, “Methods for treating cancer” (Bicycle Therapeutics Limited, priority 2016, dated 2019).
*1 amine or outer side, *2 acyl side, *3 side chain or, on linkers, in order; H or OH if unused. Where a SMILES comes first, the peptide text is derived from it. Bridges are numbered along the chain shown (N, C = ends). [ ]: non-standard residue; d: D form. The star is where a group is joined. X1 = COc1cc2cc(c1Cl)N(C)C(=O)C[C@H](OC(=O)[C@H](C)N(C)C(=O)CCSSC(C)CCC(=O)*)[C@]1(C)O[C@H]1[C@H](C)[C@@H]1C[C@@](O)(NC(=O)O1)[C@H](OC)/C=C/C=C(\C)C2; 1Nal = N[C@@H](Cc1cccc2ccccc12)C(=O)O; TBMB = c1c(C[*:1])cc(C[*:3])cc1C[*:2]; Tle = CC(C)(C)[C@H](N)C(=O)O; βAla = NCCC(=O)O; Sar = CNCC(=O)O

Test system: MDA-MB-231 xenograft
Experiment: In vivo efficacy of BT1718 in MDA-MB-231 xenograft
Set-up: species or system Mus Musculus; key to Best response at 10 mg/kg: CR complete response; PR partial response
Description: The objective of this study was to evaluate the in vivo anti-tumor efficacy of BT1718in treatment of HT1080, NCI-H292, NCI-H1975, MDA-MB-231, HCC1806, RPMI2650, HCT-15, HT-29 and SNU-16 xenograft in BALB/c nude mice.
The HT1080, NCI-H292, NCI-H1975, MDA-MB-231, HCC1806, RPMI2650, HCT-15, HT-29 and SNU-16 tumor cells were maintained in vitro as a monolayer culture in medium supplemented with 10% heat inactivated fetal bovine serum at 37° C. in an […]. The tumor cells will be routinely subcultured twice weekly by trypsin-EDTA treatment. The cells growing in an exponential growth phase will be harvested and counted for tumor inoculation.
Mouse was inoculated subcutaneously at the right flank with tumor cells for tumor development. The animals were randomized and treatment was started when the average tumor reaches certain volume for the efficacy study, the inoculating cell amounts and starting tumor size were shown as below in Table 9. The test article administration and the animal numbers in each group were shown in the experimental design in Table 10.
All the procedures related to animal handling, care and the treatment in the study were performed according to the guidelines of the Association for Assessment and Accreditation of Laboratory Animal Care (AAALAC). At the time of routine monitoring, the animals were daily checked for any effects of tumor growth and treatments on normal behavior such as mobility, food and water consumption (by looking only), body weight gain/loss (body weights were measured every day), eye/hair matting and any other abnormal effect as stated in the protocol. Death and observed clinical signs were recorded on the basis of the numbers of animals within each subset.
The major endpoint was to see if the tumor growth could be delayed or mice could be cured. Tumor size was measured three times weekly in two dimensions using a caliper, and the volume was expressed in mm^3 using the formula: V=0.5 a×b^2 where a and b are the long and short diameters of the tumor, respectively. The tumor size was then used for calculations of T/C value. The T/C value (in percent) is an indication of antitumor effectiveness; T and C are the mean volumes of the treated and control groups, respectively, on a given day.
TGI was calculated for each group using the formula: TGI (%)=[1−(Ti−T0)/(Vi−V0)]×100; Ti is the average tumor volume of a treatment group on a given day, T0 is the average tumor volume of the treatment group on the day of treatment start, Vi is the average tumor volume of the vehicle control group on the same day with Ti, and V0 is the average tumor volume of the vehicle group on the day of treatment start.
Summary statistics, including mean and the standard error of the mean (SEM), are provided for the tumor volume of each group at each time point.
Statistical analysis of difference in tumor volume among the groups was conducted on the data obtained at the best therapeutic time point after the final dose.
A one-way ANOVA was performed to compare tumor volume among groups, and when a significant F-statistics (a ratio of treatment variance to the error variance) was obtained, comparisons between groups were carried out with Games-Howell test. All data were analyzed using Prism. P<0.05 was considered to be statistically significant.

[1] = MDA-MB-231, 10 mpk, biw, day 14

COc1cc2cc(c1Cl)N(C)C(=O)C[C@H](OC(=O)[C@H](C)N(C)C(=O)CCSSC(C)CCC(=O)NCCC(=O)N(C)CC(=O)N(C)CC(=O)N(C)CC(=O)N(C)CC(=O)N(C)CC(=O)N(C)CC(=O)N(C)CC(=O)N(C)CC(=O)N(C)CC(=O)N(C)CC(=O)N[C@@H](C)C(=O)N[C@H]1CSCc3cc4cc(c3)CSC[C@H](NC(=O)[C@@H](C)NC(=O)[C@H](Cc3cccc5ccccc35)NC(=O)[C@H](CCC(=O)O)NC(=O)[C@H](CC(N)=O)NC(=O)[C@@H](C)NC1=O)C(=O)N[C@@H](CCC(=O)O)C(=O)N[C@@H](CC(=O)O)C(=O)N[C@@H](Cc1ccccc1)C(=O)N[C@@H](Cc1ccc(O)cc1)C(=O)N[C@@H](CC(=O)O)C(=O)N[C@@H](C(C)(C)C)C(=O)N[C@H](C(N)=O)CSC4)[C@]1(C)O[C@H]1[C@H](C)[C@@H]1C[C@@](O)(NC(=O)O1)[C@H](OC)/C=C/C=C(\C)C2 (some centres unmarked) [BT1718] ({X1-βAla}-[Sar][Sar][Sar][Sar][Sar][Sar][Sar][Sar][Sar][Sar]AC[dA]NE[1Nal][dA]CEDFYD[Tle]C-NH2; linker 12-18-25 via TBMB (inferred))
tumor behaviour on resumed treatment (10 mg/kg biw re-treatment): slow re-growth
Body Weight (1 mpk biw, day 0): 23.4 ± 0.5 g
Tumor Volume (1 mpk biw, day 0): 187 ± 6 mm^3
Body Weight (1 mpk biw, day 2): 23.3 ± 0.6 g
Tumor Volume (1 mpk biw, day 2): 288 ± 25 mm^3
Body Weight (1 mpk biw, day 4): 23.3 ± 0.6 g
Tumor Volume (1 mpk biw, day 4): 435 ± 25 mm^3
Body Weight (1 mpk biw, day 7): 24.6 ± 0.5 g
Tumor Volume (1 mpk biw, day 7): 636 ± 53 mm^3
Body Weight (1 mpk biw, day 9): 24.6 ± 0.6 g
Tumor Volume (1 mpk biw, day 9): 822 ± 117 mm^3
Body Weight (1 mpk biw, day 11): 24.1 ± 0.1 g
Tumor Volume (1 mpk biw, day 11): 979 ± 51 mm^3
Body Weight (1 mpk biw, day 14): 24.9 ± 0.5 g
Tumor Volume (1 mpk biw, day 14): 1221 ± 62 mm^3
Body Weight (3 mpk biw, day 0): 23.0 ± 0.9 g
Tumor Volume (3 mpk biw, day 0): 187 ± 11 mm^3
Body Weight (3 mpk biw, day 2): 22.5 ± 1.0 g
Tumor Volume (3 mpk biw, day 2): 281 ± 23 mm^3
Body Weight (3 mpk biw, day 4): 22.3 ± 1.0 g
Tumor Volume (3 mpk biw, day 4): 389 ± 21 mm^3
Body Weight (3 mpk biw, day 7): 23.8 ± 1.1 g
Tumor Volume (3 mpk biw, day 7): 547 ± 38 mm^3
Body Weight (3 mpk biw, day 9): 23.8 ± 1.1 g
Tumor Volume (3 mpk biw, day 9): 729 ± 74 mm^3
Body Weight (3 mpk biw, day 11): 23.6 ± 1.1 g
Tumor Volume (3 mpk biw, day 11): 829 ± 79 mm^3
Body Weight (3 mpk biw, day 14): 23.9 ± 1.3 g
Tumor Volume (3 mpk biw, day 14): 1021 ± 65 mm^3
Body Weight (10 mpk biw, day 0): 23.3 ± 1.0 g
Tumor Volume (10 mpk biw, day 0): 187 ± 10 mm^3
Body Weight (10 mpk biw, day 2): 22.9 ± 1.3 g
Tumor Volume (10 mpk biw, day 2): 270 ± 25 mm^3
Body Weight (10 mpk biw, day 4): 22.2 ± 0.9 g
Tumor Volume (10 mpk biw, day 4): 312 ± 27 mm^3
Body Weight (10 mpk biw, day 7): 23.3 ± 1.2 g
Tumor Volume (10 mpk biw, day 7): 294 ± 31 mm^3
Body Weight (10 mpk biw, day 9): 23.0 ± 1.1 g
Tumor Volume (10 mpk biw, day 9): 248 ± 23 mm^3
Body Weight (10 mpk biw, day 11): 21.6 ± 1.0 g
Tumor Volume (10 mpk biw, day 11): 204 ± 19 mm^3
Body Weight (10 mpk biw, day 14): 24.3 ± 1.1 g
Tumor Volume (10 mpk biw, day 14): 158 ± 20 mm^3
Best response at 10 mg/kg (MDA-MB-231, 10 mg/kg): CR
TGI (MDA-MB-231, 1 mpk, biw, day 14): 7.6%
Tumor Volume (MDA-MB-231, 1 mpk, biw, day 14): 1221 ± 62 mm^3
TGI (MDA-MB-231, 3 mpk, biw, day 14): 25.5%
Tumor Volume (MDA-MB-231, 3 mpk, biw, day 14): 1021 ± 65 mm^3
TGI [1]: 102.6%
Tumor Volume [1]: 158 ± 20 mm^3
Minimally Effective Dose IV BIW (MDA-MB-231, dose leading to tumor-stasis): <10 mg/kg
dosing suspension until re-growth to 150 mm3 (after 10 mg/kg biw): 3 weeks
tumor volume after regression (after 2-3 weeks 10 mg/kg biw): below 50 mm3
